Several values for one entry are separate records, joined by “and”; a condition that tells them apart may be missing. Equal values may be shown once. Read-outs that look alike come from different tables or passages of the source.
Key:
[1] = molecular target: HDAC2 (Homo sapiens, UniProt Q92769); test: NanoBRET target engagement assay (HEK293T); type: cell-based; parameters: BRD4 bromodomains and full-length HDACs were obtained as plasmids cloned in-frame with a terminal NanoLuc fusion; host or cells: HEK293T
Protocol: (§1) The assay was performed as described previously.[17],[59] In brief, BRD4 bromodomains and full-length HDACs were obtained as plasmids cloned in-frame with a terminal NanoLuc fusion (Promega). Plasmids were transfected into HEK293T cells using FuGENE HD (Promega, E2312), and proteins were allowed to express for 20 h. […] The corresponding protein-transfected cells were added and reseeded at a density of 2 × 10^5 cells/mL after trypsinization and resuspended in Opti-MEM without phenol red (Life Technologies). The system was allowed to equilibrate for 2 h at 37 °C/5% CO2 prior to BRET measurements. […] For lysed-mode NanoBRET experiments, digitonin (Promega, #G9441) was added as per the manufacturer’s instructions to a final concentration of […].

[2] = molecular target: HDAC3 (Homo sapiens, UniProt O15379); test: NanoBRET target engagement assay (HEK293T); type: cell-based; parameters: BRD4 bromodomains and full-length HDACs were obtained as plasmids cloned in-frame with a terminal NanoLuc fusion; host or cells: HEK293T; conditions: intact cells
Protocol: as §1

[3] = molecular target: HDAC1 (Homo sapiens, UniProt Q13547); test: NanoBRET target engagement assay (HEK293T); type: cell-based; parameters: BRD4 bromodomains and full-length HDACs were obtained as plasmids cloned in-frame with a terminal NanoLuc fusion; host or cells: HEK293T
Protocol: as §1

[4] = molecular target: T1, BRD4 BD2 (Homo sapiens, UniProt O60885); test: NanoBRET target engagement assay (HEK293T); type: cell-based; parameters: BRD4 bromodomains and full-length HDACs were obtained as plasmids cloned in-frame with a terminal NanoLuc fusion; host or cells: HEK293T; conditions: intact cells
Protocol: (§2) The assay was performed as described previously.[17],[59] In brief, BRD4 bromodomains and full-length HDACs were obtained as plasmids cloned in-frame with a terminal NanoLuc fusion (Promega). Plasmids were transfected into HEK293T cells using FuGENE HD (Promega, E2312), and proteins were allowed to express for 20 h. Serially diluted inhibitor and the corresponding NanoBRET Tracer (Promega) at a concentration determined previously as the tracer KD, app were pipetted into white 384-well plates (Greiner #781207) for BRD assays or white 96-well plates (Corning #3600) for HDAC using an Echo acoustic dispenser (Labcyte). The corresponding protein-transfected cells were added and reseeded at a density of 2 × 10^5 cells/mL after trypsinization and resuspended in Opti-MEM without phenol red (Life Technologies). The system was allowed to equilibrate for 2 h at 37 °C/5% CO2 prior to BRET measurements. To measure BRET, NanoBRET NanoGlo substrate + Extracellular NanoLuc Inhibitor (Promega, N2540) was added as per the manufacturer’s protocol, and filtered luminescence was measured on a PHERAstar plate reader (BMG Labtech) equipped with a luminescence filter pair (450 nm BP filter (donor) and 610 nm LP filter (acceptor)). For lysed-mode NanoBRET experiments, digitonin (Promega, #G9441) was added as per the manufacturer’s instructions to a final concentration of […].

[5] = molecular target: T2, BRD4 BD1 (Homo sapiens, UniProt O60885); test: NanoBRET target engagement assay (HEK293T); type: cell-based; parameters: BRD4 bromodomains and full-length HDACs were obtained as plasmids cloned in-frame with a terminal NanoLuc fusion; host or cells: HEK293T; conditions: intact cells
Protocol: as §2

[6] = test system: histone H3 K9/K14 acetylation in PaTu8988T cells; test: Western blot of histone H3 K9/K14 acetylation; type: cell-based; conditions: 48 h, 1 μM inhibitor or concentration series
Protocol: Protein samples were prepared in RIPA buffer (9806S, Cell Signaling Technology) containing a protease inhibitor cocktail (Roche). Proteins were separated in SDS-polyacrylamide gels, transferred to nitrocellulose membranes with a Trans-Blot Turbo Transfer System (Bio-Rad), and incubated with antibodies dissolved in TBS buffer containing 5% BSA and 0.1% Tween20. The following primary antibodies were used: rabbit anti-β-actin (ab8227, Abcam) and rabbit antiacetyl-histone H3 (Lys9/Lys14; 9677, Cell Signaling Technology). Primary antibodies were recognized by a peroxidase-coupled secondary antibody (Jackson), and signals were detected by chemiluminescence.

[7] = molecular target: T1, BRD4 BD2; test: DSF thermal shift assay; type: binding; parameters: purchased in-house (SGC Frankfurt recombinant bromodomain DSF panel); conditions: for Mean Tm BRD4 (2), bromodomain panel: selectivity panel, technical triplicates
Protocol: (§3) The effects of inhibitor binding on the apparent melting temperature of recombinant bromodomains were determined by DSF in a 96-well plate (Starlab) at a protein concentration of 2 μM with 10 μΜ compound in buffer containing 25 mM HEPES, pH 7.5, 150 mM NaCl, and 0.5 mM TCEP. […] Protein unfolding profiles were recorded using an MX3005P real-time qPCR instrument (Agilent; excitation/emission filters = 492/610 nm) while increasing the temperature from 25 to 95 °C at a heating rate of 3 °C/min. Tm values were calculated after fitting the fluorescence curves to the Boltzmann equation. Differences in melting temperature upon compound binding are given as ΔTm = Tm (protein with inhibitor) – Tm (protein with DMSO control). Measurements were performed in triplicates.

[8] = molecular target: T2, BRD4 BD1; test: DSF thermal shift assay; type: binding; parameters: purchased in-house (SGC Frankfurt recombinant bromodomain DSF panel); conditions: for Mean Tm BRD4 (1), bromodomain panel: selectivity panel, technical triplicates
Protocol: as §3

HDAC3, sequence (O15379 whole entry, the tested form may be a part): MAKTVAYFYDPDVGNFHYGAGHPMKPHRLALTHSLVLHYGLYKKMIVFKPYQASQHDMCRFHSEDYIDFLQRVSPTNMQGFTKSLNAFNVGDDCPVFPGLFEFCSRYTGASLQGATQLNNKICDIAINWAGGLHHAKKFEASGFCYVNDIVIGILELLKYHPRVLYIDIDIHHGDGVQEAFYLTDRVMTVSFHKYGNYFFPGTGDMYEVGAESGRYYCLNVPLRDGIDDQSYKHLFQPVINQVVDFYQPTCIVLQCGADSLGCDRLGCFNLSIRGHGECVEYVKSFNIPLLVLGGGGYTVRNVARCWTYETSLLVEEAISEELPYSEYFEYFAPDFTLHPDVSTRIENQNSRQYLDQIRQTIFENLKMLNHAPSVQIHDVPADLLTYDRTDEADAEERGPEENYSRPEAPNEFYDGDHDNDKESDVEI
HDAC1, sequence (Q13547 whole entry, the tested form may be a part): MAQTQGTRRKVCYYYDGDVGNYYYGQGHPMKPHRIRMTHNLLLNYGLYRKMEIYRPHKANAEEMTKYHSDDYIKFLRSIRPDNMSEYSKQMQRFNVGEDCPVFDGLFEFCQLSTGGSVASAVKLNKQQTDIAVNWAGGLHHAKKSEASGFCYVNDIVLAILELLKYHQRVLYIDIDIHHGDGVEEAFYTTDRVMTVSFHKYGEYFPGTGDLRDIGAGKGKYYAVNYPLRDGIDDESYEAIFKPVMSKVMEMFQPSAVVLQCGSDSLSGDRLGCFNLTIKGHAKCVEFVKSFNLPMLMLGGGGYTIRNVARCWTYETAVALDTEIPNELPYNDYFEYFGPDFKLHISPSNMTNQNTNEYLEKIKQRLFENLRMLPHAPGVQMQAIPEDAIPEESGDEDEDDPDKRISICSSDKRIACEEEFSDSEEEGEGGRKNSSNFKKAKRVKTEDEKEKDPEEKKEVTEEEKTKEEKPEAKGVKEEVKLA
HDAC2, sequence (Q92769 whole entry, the tested form may be a part): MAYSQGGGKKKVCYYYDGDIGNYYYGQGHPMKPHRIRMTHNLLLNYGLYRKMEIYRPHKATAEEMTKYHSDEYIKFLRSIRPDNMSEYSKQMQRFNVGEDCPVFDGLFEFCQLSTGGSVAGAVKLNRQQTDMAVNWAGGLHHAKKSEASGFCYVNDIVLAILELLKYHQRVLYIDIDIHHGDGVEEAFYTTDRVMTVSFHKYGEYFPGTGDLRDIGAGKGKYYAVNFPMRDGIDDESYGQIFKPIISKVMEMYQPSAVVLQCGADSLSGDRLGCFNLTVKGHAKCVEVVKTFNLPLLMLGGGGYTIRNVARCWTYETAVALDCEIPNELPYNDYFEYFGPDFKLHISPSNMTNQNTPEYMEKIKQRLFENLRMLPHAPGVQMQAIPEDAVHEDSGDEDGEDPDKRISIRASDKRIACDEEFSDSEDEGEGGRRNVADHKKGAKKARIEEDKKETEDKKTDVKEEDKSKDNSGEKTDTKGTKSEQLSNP

SMILES | EC50 ([1]; intact cells) | EC50 ([1]; lysed-mode) [nM] | EC50 [2] [nM] | EC50 ([3]; intact cells) [nM] | EC50 ([3]; lysed-mode) [nM] | EC50 [4] [nM] | EC50 [5] [nM] | inhibition of histone H3 K9/K14 deacetylation (Western blot) [6] | Mean Tm BRD4 (2), bromodomain panel ([7]; 10 μM compound) [K] | Mean Tm BRD4 (1), bromodomain panel ([8]; 10 μM compound) [K] | DSF ΔTm BRD4 BD2 ([7]; 10 μM compound, 2 μM protein) [K] | ΔTm at 10 µM ([7]; read-out: DSF ΔTm BRD4 BD2, 10 μM compound, 2 μM protein) [°C] | DSF ΔTm BRD4 BD1 ([8]; 10 μM compound, 2 μM protein) [K] | ΔTm at 10 µM ([8]; read-out: DSF ΔTm BRD4 BD1, 10 μM compound, 2 μM protein) [°C] | ΔTm at 10 µM ([7]; 10 μM compound, 2 μM protein, read-out: DSF ΔTm BRD4 BD2) [°C] | ΔTm at 10 µM ([8]; 10 μM compound, 2 μM protein, read-out: DSF ΔTm BRD4 BD1) [°C]
Cn1cc(-c2ccc(C(=O)Nc3cc(-c4ccccc4)ccc3N)nc2)c2cc[nH]c2c1=O [NB512] | 98 nM and 100 nM | 37 | 13600 ± 4800 | 110 ± 30 | 27 | 250 ± 120 | 360 ± 130 | more potent inhibitor overall | – | – | – | – | – | – | – | –
Cn1cc(-c2ccc(C(=O)Nc3cc(-c4ccccc4)ccc3N)cc2)c2cc[nH]c2c1=O [NB503] | 360 ± 120 nM | – | 6500 ± 2800 | 190 ± 30 | – | 520 ± 180 | 420 ± 110 | concentration-dependent | 5.3 ± 0.2 | 5.5 ± 0.1 | – | – | – | – | – | –
Cn1cc(-c2ccc(C(=O)Nc3ccccc3N)cc2)c2cc[nH]c2c1=O [NB462] | 1600 ± 700 nM | – | 32000 ± 16000 | 2600 ± 1100 | – | 190 ± 20 | 250 ± 20 | significantly more potent than CI-944 | 4.6 ± 0.1 | 3.6 ± 0.1 | 4.5 ± 0.1 | 4 to 5 | 3.9 ± 0.4 | 4 to 5 | – | –
Cn1cc(-c2ccc(C(=O)Nc3ccccc3N)nc2)c2cc[nH]c2c1=O [NB500] | 2500 ± 700 nM | – | > 50000 | 4800 ± 2300 | – | 160 ± 40 | 240 ± 20 | much less potent | – | – | – | – | – | – | 4.7 ± 0.4 | 4.2 ± 0.4

Reference: PMC10878397, “Development of Potent Dual BET/HDAC Inhibitors via Pharmacophore Merging and Structure-Guided Optimization” (ACS Chemical Biology, 2024)
